Experimental data reported in ChEMBL document CHEMBL1201862, “PubChem BioAssay data set” (2004).
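Tested at 5 concentrations; 48 h exposure; 96-well plates; endpoints linearly interpolated, else capped at highest concentration. GI50 = concentration required for 50% inhibition of growth.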 Calls of active or inactive are those of the source. No stated cut-off is given here; in the data, active = GI50 up to about 1.1 µM and inactive = higher.

Tests used:
Test in all cases: NCI tumour cell line growth inhibition, 48 h
A498 = system: A498
A549 = system: A549
BT-549 = system: BT-549
CAKI-1 = system: CAKI-1
EKVX = system: EKVX
HL-60 = system: HL-60
HOP-62 = system: HOP-62
Hs-578T = system: Hs-578T
KM12 = system: KM12
MCF7 = system: MCF7
MDA-MB-435 = system: MDA-MB-435
NCI/ADR-RES = system: NCI/ADR-RES
OVCAR-4 = system: OVCAR-4
OVCAR-8 = system: OVCAR-8
PC-3 = system: PC-3
SF-295 = system: SF-295
SN12C = system: SN12C
U-251 = system: U-251
UO-31 = system: UO-31

Measured: GI50

O=C1c2ccccc2NC(c2cc(Cl)cc(Cl)c2O)N1CCc1ccccn1 (stereo unspecified)
inactive: A498 > 100 µM | A549 48.6 µM | BT-549 > 100 µM | CAKI-1 > 100 µM | EKVX 62.5 µM | HL-60 > 100 µM | HOP-62 > 100 µM | Hs-578T 55.8 µM | KM12 64 µM | MCF7 61 µM | MDA-MB-435 68.1 µM | NCI/ADR-RES 60.4 µM | OVCAR-4 36.8 µM | OVCAR-8 80.2 µM | PC-3 24 µM | SF-295 > 100 µM | SN12C 69.8 µM | U-251 39.8 µM | UO-31 > 100 µM

CCN(CC)Cc1cc(/N=N\c2c(O)ccc3c(/N=N\c4ccc(O)c(CN(CC)CC)c4)c(O)ccc23)ccc1O
inactive: A498 13.3 µM | A549 2.42 µM | BT-549 4.92 µM | CAKI-1 2.1 µM | EKVX 4.56 µM | HL-60 1.8 µM | HOP-62 2.79 µM | Hs-578T 3.73 µM | KM12 1.18 µM | MCF7 2.39 µM | MDA-MB-435 3.65 µM | NCI/ADR-RES 4.57 µM | OVCAR-4 1.77 µM | OVCAR-8 2.12 µM | PC-3 5.11 µM | SF-295 5.01 µM | SN12C 3.92 µM | U-251 3.48 µM | UO-31 2 µM

NC(=O)NC(=O)CCC(NS(=O)(=O)c1ccccc1)C(=O)NC(N)=O (stereo unspecified)
inactive: A498 > 100 µM | A549 > 100 µM | BT-549 > 100 µM | CAKI-1 > 100 µM | EKVX > 100 µM | HL-60 > 100 µM | HOP-62 > 100 µM | Hs-578T > 100 µM | KM12 > 100 µM | MCF7 > 100 µM | MDA-MB-435 > 100 µM | NCI/ADR-RES > 100 µM | OVCAR-4 > 100 µM | OVCAR-8 > 100 µM | PC-3 > 100 µM | SF-295 > 100 µM | SN12C > 100 µM | U-251 > 100 µM | UO-31 > 100 µM

CC1CCCC2(CC[N+](C)(CCC[N+](C)(C)C)CC2)C1 (stereo unspecified)
inactive: A498 > 100 µM | A549 > 100 µM | BT-549 > 100 µM | CAKI-1 > 100 µM | EKVX > 100 µM | HL-60 5.48 µM | HOP-62 > 100 µM | Hs-578T > 100 µM | KM12 > 100 µM | MCF7 > 100 µM | MDA-MB-435 > 100 µM | NCI/ADR-RES > 100 µM | OVCAR-4 > 100 µM | OVCAR-8 > 100 µM | PC-3 > 100 µM | SF-295 > 100 µM | SN12C > 100 µM | U-251 > 100 µM | UO-31 > 100 µM
